Results from article PMC4822137, “Proteasomes generate spliced epitopes by two different mechanisms and as efficiently as non-spliced epitopes” (Scientific Reports, 2016).

Test system: CD8+ T cells from a HLA-A*03:01+ healthy donor
Experiment: frequency of specific CD8+ T cells in micro-culture well #136
Type: cell-based, human
Details: after two rounds of stimulation with DC preloaded with 50 µM peptide; CD8/IFN-γ flow cytometry
Source text: Cell cultures. Cells were checked for mycoplasma contamination. LCLs are human B lymphocytes immortalized with Epstein Barr virus. T2 cell line is a human T cell leukemia/B cell line hybrid defective in TAP1/TAP2 (transporter associated with antigen […]) and β1i/β5i subunits. T2 cell line and erythrocytes contain only s-proteasomes, whereas spleen and LCLs posses proteasomes carrying mainly immuno-subunits 5,6. HeLa cells were cultivated in Iscove medium supplemented with 10% FCS, 1% L-glutamine and 1% penicillin (Biochrom). The HeLa 33/2 cell line constitutively expresses the three β5i, β1i and β2i immuno-subunits. It was maintained in Iscove medium supplemented with 10% FCS, 1% L-glutamine, 1% of a combination of penicillin and streptomycin as well as 2 µg/ml puromycin and 300 µg/ml hygromycin (PAA Laboratories).
Ma-Mel63a were established from tumor metastasis after informed consent of the patient. […] In this assay TNF-α release was measured by lysis of WEHI-13 cells. The frequency of the specific CD8+ T cells present in the responsive micro-cultures was determined by intracellular double staining for CD8 and IFN-γ using flow cytometry. […]
were analyzed for their capacity to secrete TNF-α upon re-stimulation with 50 µM of the same peptide in […]
a 6 hr assay. […] TNF-α was measured […]

Substance: [QLYPEW][RTK] [gp100^mel47–52/40–42]
- specific CD8+ T cells in well #136: ~ 10%
